Laboratory results taken from US10995068B2, “Synthetic sphingolipid-like molecules, drugs, methods of their synthesis and methods of treatment” (The Regents of the University of California, priority 2015, dated 2021).

Columns and labels:
S1P receptor 1 = target: T1, S1P receptor 1 (Homo sapiens, UniProt P21453); assay: S1P receptor activation in CHO cells, S1P1; assay type: cell-based; conditions: CHO cells over-expressing human S1P1, 10 min stimulation, Western blot
T1 construct: expressed in transfected cells
T1 sequence (P21453 whole entry): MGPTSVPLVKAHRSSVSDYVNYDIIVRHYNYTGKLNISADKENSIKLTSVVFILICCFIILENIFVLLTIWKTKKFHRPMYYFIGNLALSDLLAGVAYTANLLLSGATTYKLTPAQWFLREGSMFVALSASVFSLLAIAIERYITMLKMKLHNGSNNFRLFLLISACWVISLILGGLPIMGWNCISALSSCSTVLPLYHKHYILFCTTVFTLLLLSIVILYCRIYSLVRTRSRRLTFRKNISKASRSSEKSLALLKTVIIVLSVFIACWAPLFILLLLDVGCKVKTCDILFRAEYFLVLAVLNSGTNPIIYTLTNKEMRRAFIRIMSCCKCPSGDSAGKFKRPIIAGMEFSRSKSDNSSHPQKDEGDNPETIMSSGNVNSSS
Source text: (§1) Phosphorylation may have effects on S1P receptor activity that could cause bradycardia. Bradycardia, the dose-limiting toxicity that prevents the use of FTY720 in cancer patients, stems from FTY720-P's actions on S1P receptors 1 and 3. (Camm, J., et al. (2014) Am. Heart J. 168, 632-644; Cohen, J. A., Chun, J. (2011) Ann. Neurol. 69, 759-777; Sanna, M. G., et al. (2004) J. Biol. Chem. 279, 13839-13848; the disclosures of which are incorporated herein by reference). Phosphorylation by sphingosine kinase may make compounds competent to activate S1P receptors. FTY720, for example, when phosphorylated is known to activate S1P receptors 1 and 3. Because compound 5 could be phosphorylated, the activity of compound 5 and its phosphate 5-P (FIG. 28) on S1P receptors was evaluated (FIG. 32).
(§2) 51P1-5 activation: Chinese hamster ovary (CHO) cells stably over-expressing the different human 51P receptor subtypes are used. S1P1, S1P4 and S1P5 overexpressing CHO cells are cultured in medium containing alpha-MEM supplemented with 10% FBS, 50 μg/ml gentamycin and 0.5 mg/ml G418. S1P2 and S1P3 overexpressing CHO cells are cultured in RPMI containing 10% FBS, 50 μg/ml gentamycin and 0.5 mg/ml G418. Prior to stimulation, cells are rendered serum-free for 24 h. Stimulation is carried out for 10 min in serum-free DMEM containing 0.1 mg/ml of fatty-acid free BSA in the absence or presence of the various compounds or 51P. Protein lysates are prepared using a buffer containing (50 mM Tris pH 7.4, 150 mM NaCl, 10% glycerol, 1% Triton X-100, 2 mM EDTA, 2 mM EGTA, 40 mM β-glycerophosphate, 50 mM sodium fluoride, 10 mM sodium pyrophosphate, 2 mM dithiothreitol, 0.2 mM sodium orthovanadate). Cells are homogenized by one 5 sec burst in a MSE Ultrasonic Disintegrator, centrifuged and taken for protein determination. Equal amounts of protein are separated by SDS-PAGE (10% polyacrylamide gel), transferred to nitrocellulose membranes and subjected to Western blot analysis. Bands were stained using IRDye® secondary antibodies and visualized by the LICOR Odyssey® Fc Imaging system. Antibodies against phospho-Thr202/Tyr204-p42/p44-MAPK and phospho-Ser PKC substrate are from Cell Signaling, Frankfurt am Main, Germany. Polyclonal antisera against total p42 and total p44 were generated and characterized as previously described. (Huwiler, A.; Pfeilschifter, J. Br. J. Pharmacol. 1994, 113, 1455-1463; disclosure of which is incorporated herein by reference).

S1P receptor 5 = target: T2, S1P receptor 5 (Homo sapiens, UniProt Q9H228); assay: S1P receptor activation in CHO cells, S1P5; assay type: cell-based; conditions: CHO cells over-expressing human S1P5
T2 construct: expressed in transfected cells
T2 sequence (Q9H228 whole entry): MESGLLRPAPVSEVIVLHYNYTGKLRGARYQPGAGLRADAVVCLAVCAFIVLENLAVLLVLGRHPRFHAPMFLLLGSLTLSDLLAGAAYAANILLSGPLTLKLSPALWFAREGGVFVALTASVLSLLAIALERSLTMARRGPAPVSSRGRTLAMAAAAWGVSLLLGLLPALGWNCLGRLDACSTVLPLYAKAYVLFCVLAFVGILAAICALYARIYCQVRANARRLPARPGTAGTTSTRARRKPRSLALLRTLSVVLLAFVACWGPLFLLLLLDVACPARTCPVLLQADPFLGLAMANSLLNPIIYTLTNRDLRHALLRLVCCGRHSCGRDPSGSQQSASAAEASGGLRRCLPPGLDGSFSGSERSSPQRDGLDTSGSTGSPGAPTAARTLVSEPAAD
Source text: as §1, §2

[1] = Lymphocyte sequestration in mice; assay type: in vivo, C57BL6 mice; conditions: 10 mg/kg intraperitoneally, blood after 12 h, compared to saline
Source text: In more exemplary embodiments, compounds 5 and 5-P were further examined for their ability to activate multiple S1P receptors in vivo. In particular, mouse heart rate and lymphocyte sequestration were examined. Mouse heart rate decreases causing bradycardia when S1P receptor 3 is activated while in humans this effect may be mediated by S1P receptor 1. In both mice and humans, lymphocytes are sequestered when the S1P receptor 1 is activated.
Lymphocyte sequestration: Female 8-24 week old C57BL6 mice are injected intraperitoneally with vehicle (0.9% saline or 20% acidified DMSO in 0.9% saline), 10 mg/kg FTY720, FTY720-phosphate, 5, or 5-P. After 12 h, blood is collected from the retro-orbital sinus under ketamine/xylazine anesthesia. 10 μL of whole blood is added to 190 μL of ACK red blood cell lysis buffer, incubated at room temperature for 3-5 minutes […], and the white blood cells recovered by centrifugation. Nucleated cells (Hoechst33342 positive) are counted using a hemocytometer to obtain the white blood cell count. Separately, 50 μL of whole blood is added to 1 mL of ACK red blood cell lysis buffer and incubated for 3-5 minutes at room temperature. Cells are washed with FACS wash (2% FCS in PBS with 0.05% NaN3) and red blood cell lysis repeated. Tubes are decanted and resuspended in 100 μL of FACS block (10% FCS in PBS with 0.05% NaN3) with directly conjugated antibodies recognizing B220, CD4, or CD8 (all from Biolegend, San Diego) for 30 min on ice. Cells are analyzed on a BD LSR II flow cytometer; the analysis is restricted to live cells (DAPI negative). These experiments are performed in accordance with all national or local guidelines and regulations and are approved by the UCI Institutional Animal Care and Use Committee.

PP2A = PP2A phosphatase activity; assay type: biochemical, murine; conditions: PP2A immunoprecipitated from FL5.12 cell lysates, phosphopeptide dephosphorylation
Source text: Furthermore, many embodiments of the invention are directed to azacyclic constrained sphingolipid-like molecules inducing internalization of nutrient transporters via a mechanism that activates PP2A. […] Thus, activation of PP2A is very peculiar to certain sphingolipid structures. Activation of PP2A by FTY720 and SH-BC-893 also stimulated vacuolation, and as the PP2A inhibitors calyculin A and SV40 small t antigen, each blocked this effect (FIG. 59C). Of note, YM201636-induced vacuolation was unaffected by PP2A inhibition (FIG. 60B). In addition, inhibiting PP2A restored PIKfyve to the proper location within vacuoles in cells treated with FTY720 or SH-BC-893 (FIG. 57D).
PP2A phosphatase activity. PP2A activity was measured using a PP2A immunoprecipitation phosphatase assay kit (EMD Millipore). Briefly, the catalytic subunit of PP2A was immunoprecipitated from FL5.12 cell lysates with 4 μg anti-PP2A, C subunit. After four washes, the activity of immunoprecipitated PP2A was assessed by dephosphorylation of the phosphopeptide according to the manufacturer's instructions in the presence or absence of C2-ceramide, dihydro-C2-ceramide, FTY720, SH-BC-893, or calyculinA.

Compound	activation of S1P receptor 1 (S1P receptor 1)	activation of S1P receptor 5 (S1P receptor 5)	lymphocyte sequestration [1]	PP2A activation (PP2A)
CCCCCCCCc1ccc([C@H]2CCN[C@@H]2CO)cc1.Cl [Compound 5, (2S,3R)-2-(hydroxymethyl)-3-(4-octylphenyl)Pyrrolidinium chloride]	weakly activated	failed to activate	no significant effect	activating PP2A
CCCCCCCCc1ccc([C@@H]2CCN[C@H]2CO)cc1.Cl [Compound 6]	weakly activated	failed to activate		
CCCCCCCCc1ccc(CCC(N)(CO)CO)cc1.Cl [FTY720, 2-Amino-2-[2-(4-octylphenyl)ethyl]propane 1,3-diol hydrochloride, reference compound]			significantly sequestered lymphocytes	activating PP2A
